The source of these data is ChEMBL document CHEMBL1126447 (Bioorg Med Chem Lett, 1992).

pIC50: −log10 of the molar value.

By pIC50 is commonly meant the negative decadic logarithm of the IC50, by convention in mol/L. A lower pIC50 goes with a large IC50.

Test [1] has as its target Acetylcholinesterase (Homo sapiens, UniProt P22303).
Description: Inhibition of acetylcholinesterase (AChE) of human red blood cell (type XIII) by modified radiometric AChE assay
The target of a further test is Butyrylcholinesterase (Equus caballus, UniProt Q9N1N9).
Test [2] deals with Acetylcholinesterase (Electrophorus electricus, UniProt O42275).
Chain of Acetylcholinesterase (Electrophorus electricus, UniProt O42275) (O42275 whole entry): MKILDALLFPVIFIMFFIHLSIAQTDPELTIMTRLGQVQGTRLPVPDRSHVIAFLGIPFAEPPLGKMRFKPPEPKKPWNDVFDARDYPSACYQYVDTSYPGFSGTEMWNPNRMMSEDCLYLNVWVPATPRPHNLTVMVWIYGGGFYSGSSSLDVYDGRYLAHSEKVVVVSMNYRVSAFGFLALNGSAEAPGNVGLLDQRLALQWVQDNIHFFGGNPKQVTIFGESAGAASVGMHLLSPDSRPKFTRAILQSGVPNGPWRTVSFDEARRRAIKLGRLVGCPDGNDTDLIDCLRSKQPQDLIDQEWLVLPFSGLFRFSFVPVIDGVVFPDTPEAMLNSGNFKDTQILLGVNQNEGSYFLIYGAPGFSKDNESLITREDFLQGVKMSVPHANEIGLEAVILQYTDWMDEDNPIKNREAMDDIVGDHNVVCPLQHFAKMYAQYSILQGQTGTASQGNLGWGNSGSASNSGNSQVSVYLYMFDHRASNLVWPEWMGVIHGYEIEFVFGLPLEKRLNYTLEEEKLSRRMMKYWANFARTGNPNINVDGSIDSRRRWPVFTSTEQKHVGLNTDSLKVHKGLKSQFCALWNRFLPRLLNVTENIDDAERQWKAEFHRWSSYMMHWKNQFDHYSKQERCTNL
Description: Inhibition of acetylcholinesterase (AChE) in electric eel (type V-S) by modified radiometric assay

Chain of Butyrylcholinesterase (Q9N1N9 whole entry): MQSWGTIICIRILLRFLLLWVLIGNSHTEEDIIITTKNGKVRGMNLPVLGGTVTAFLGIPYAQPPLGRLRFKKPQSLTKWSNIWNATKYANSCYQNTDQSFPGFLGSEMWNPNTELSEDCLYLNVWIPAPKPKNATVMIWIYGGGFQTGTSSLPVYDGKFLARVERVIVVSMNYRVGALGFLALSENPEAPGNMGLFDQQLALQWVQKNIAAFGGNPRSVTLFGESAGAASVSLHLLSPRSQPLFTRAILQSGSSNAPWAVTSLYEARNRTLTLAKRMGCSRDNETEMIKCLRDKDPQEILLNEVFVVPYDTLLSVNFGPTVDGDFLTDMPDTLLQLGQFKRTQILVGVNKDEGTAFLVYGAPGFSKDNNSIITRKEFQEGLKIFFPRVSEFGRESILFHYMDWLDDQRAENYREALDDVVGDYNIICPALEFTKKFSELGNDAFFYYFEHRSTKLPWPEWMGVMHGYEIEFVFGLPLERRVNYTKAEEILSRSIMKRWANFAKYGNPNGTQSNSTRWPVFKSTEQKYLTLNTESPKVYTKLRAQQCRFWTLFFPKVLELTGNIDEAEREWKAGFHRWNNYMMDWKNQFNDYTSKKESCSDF
Chain of Acetylcholinesterase (Homo sapiens, UniProt P22303) (P22303 whole entry): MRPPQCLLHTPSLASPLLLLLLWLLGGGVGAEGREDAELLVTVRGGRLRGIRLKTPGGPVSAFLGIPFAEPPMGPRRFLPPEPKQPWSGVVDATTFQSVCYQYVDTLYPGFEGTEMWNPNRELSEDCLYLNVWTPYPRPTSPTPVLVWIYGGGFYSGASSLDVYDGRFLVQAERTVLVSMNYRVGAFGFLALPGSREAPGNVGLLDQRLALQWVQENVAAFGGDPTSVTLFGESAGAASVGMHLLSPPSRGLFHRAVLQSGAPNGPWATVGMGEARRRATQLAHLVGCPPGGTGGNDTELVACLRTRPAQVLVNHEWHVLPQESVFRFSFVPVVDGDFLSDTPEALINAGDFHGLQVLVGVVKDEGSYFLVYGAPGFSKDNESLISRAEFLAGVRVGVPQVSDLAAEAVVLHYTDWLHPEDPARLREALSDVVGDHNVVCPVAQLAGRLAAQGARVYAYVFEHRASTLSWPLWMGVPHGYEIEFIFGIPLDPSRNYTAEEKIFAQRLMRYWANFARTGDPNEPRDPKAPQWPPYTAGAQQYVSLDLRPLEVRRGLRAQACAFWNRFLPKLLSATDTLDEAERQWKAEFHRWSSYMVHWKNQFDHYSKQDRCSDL
Description for Butyrylcholinesterase: Inhibition of (BChE) Butyrylcholinesterase of horse serum

On to `Nc1c2c(nc3cc(Cl)ccc13)C1CCC2C1` (centres undefined), for which the pIC50 on Acetylcholinesterase [1] is 8.35; against Butyrylcholinesterase it was 7.66; against Acetylcholinesterase [2], 8.63.

For `Nc1c2c(nc3c(Cl)cccc13)CCCC2`, the results for the negative logarithm of the IC50 (pIC50) on Acetylcholinesterase [1], against Butyrylcholinesterase and at Acetylcholinesterase [2] were 7.16, 7.35 and 7.44, respectively.

Take `Nc1c2c(nc3ccccc13)C1CCC2C1` (centres undefined): the pIC50 is 8.89 at Butyrylcholinesterase and 7.93 against Acetylcholinesterase [2].

For `Nc1c2c(nc3ccc(Cl)cc13)CCCC2`, the pIC50 against Acetylcholinesterase [1] was 6.13; on Butyrylcholinesterase, 9.15; against Acetylcholinesterase [2], 7.40.

In the case of `Nc1c2c(nc3cccc(Cl)c13)CCCC2`, the negative-log IC50 (pIC50) was 8.03 at Acetylcholinesterase [1], 7.90 at Butyrylcholinesterase and 8.35 on Acetylcholinesterase [2].

Turning to `Nc1c2c(nc3c(Cl)cccc13)C1CCC2C1` (centres undefined), the results for the negative logarithm of the IC50 (pIC50) against Acetylcholinesterase [1], at Butyrylcholinesterase and at Acetylcholinesterase [2] were 7.07, 6.68 and 6.31, respectively.

On to `Nc1c2c(nc3cccc(Cl)c13)C1CCC2C1` (centres undefined), for which the negative logarithm of the IC50 (pIC50) at Acetylcholinesterase [1] is 7.37; at Butyrylcholinesterase it was 7.82; at Acetylcholinesterase [2], 8.19.

Regarding `CNC(=O)Oc1ccc2c(c1)[C@]1(C)CCN(C)[C@@H]1N2C` [PHYSOSTIGMINE], the negative logarithm of the IC50 (pIC50) on Butyrylcholinesterase was 5.33.

Turning to `Nc1c2c(nc3cc(Cl)ccc13)CCCC2`, the pIC50 on Acetylcholinesterase [2] was 8.54.

As to `Nc1c2c(nc3ccccc13)CCCC2O` (centres undefined) [VELNACRINE], the negative-log IC50 (pIC50) on Butyrylcholinesterase is 7.27; on Acetylcholinesterase [2], 7.22.
